Data on 34 molecules can be found in a melting point compilation (Tetko et al.; mined from patent text by program, amines drawn as free bases though some values may be those of a salt).

Take `CC(=O)Nc1c(C(=O)c2cnccn2)[nH]c2cc(Cl)ccc12`: the melting point fell in the range of 269 to 271 °C.
In the case of `CCC(O)(c1ccc(OCCCN2CCN(C)CC2)cc1)c1cccc(C(F)(F)F)c1` (centres undefined), the melting point fell in the range of 129 to 130 °C.
The same measure for `COC(=O)C1=C(C)NC(C)=C(C(=O)OCCOC(=O)c2ccc(NC(C)=O)cc2)C1c1cccc([N+](=O)[O-])c1` (centres undefined): 190 to 193 °C; for `COc1cc(OC)cc(-c2nc(CCOc3ccc(C[C@H](OC)C(=O)O)c4sccc34)c(C)o2)c1`: 194 to 195 °C.
Take `CSCC(=O)Nc1cccc(C(F)(F)F)c1`: the melting point lay within 75 to 77 °C.
Molecule `COC(=O)c1cc2c(NC3CCC(O)CC3)nc(-c3ccccc3)nc2[nH]1` (centres undefined) registered a melting point of 225 to 227 °C.
In turn, `COc1cccc(Cl)c1CBr` came in with a melting point of 44 to 47 °C.
The same measure for `CC(C)(C)c1ccc(C2=NC[C@@H](OC(=O)Nc3ccccc3)[C@H](c3ccccc3)O2)cc1` (racemic): 80 °C; for `O=c1ccc2ccc(CNCCNc3ccccc3)cc2o1`: 81 to 83 °C.
`CCOc1nn(-c2ccc(C(F)(F)F)cn2)cc1CCCOc1cccc(OC)c1CCC(=O)O` yielded a melting point of 110 to 111 °C.
With `CSc1ncc(F)c(NCc2ccccc2F)n1` the figure was 144 to 146 °C; with `CC(C)(C)Nc1nc(-c2ccc(F)cc2)c(-c2ccc(S(C)(=O)=O)cc2)s1`, 250 to 253 °C; with `O=c1[nH]c2ncc(-c3ccc(-c4nc[nH]n4)cc3)nc2n1CC1CCCCC1`, 336 to 338 °C.
With `COC(=O)c1ccc(OCC(N)=O)c([N+](=O)[O-])c1`, the melting point lay within 185 to 187 °C.
The molecule `CN1CCN(Cc2cc(NC(=O)Nc3ccc(Oc4cc(Cl)ncn4)cc3)cc(C(F)(F)F)c2)CC1` returned a melting point of 291 to 292 °C.
The molecule `COc1ccc(NC(=O)c2ccc(Cl)c(Cl)c2)cc1[N+](=O)[O-]` showed a melting point of 215 to 218 °C.
`CC(C)(C)c1ccc(OCCCCCCCCCCC(Cl)(Cl)C(=O)O)cc1`: the melting point was 56 to 57 °C.
Regarding `C[C@@H](n1cnc2cc(-c3ccc(C(N)=O)cc3)sc2c1=O)[C@](O)(Cn1cncn1)c1ccc(F)cc1F`, the melting point fell in the range of 280 to 285 °C.
With `Cc1nc(-c2ccc3c(c2)c2cc(-c4ccc(Cl)cc4Cl)c(=O)n(C)c2n3C)cs1` the figure was 253 to 254 °C.
Regarding `CCOC(=O)C1=NNC(C)=C(C(=O)OCC)C1c1cccc([N+](=O)[O-])c1` (centres undefined), the melting point was determined as 117 °C.
For `N#Cc1ccc(-c2ccc(OCCN(O)C=O)cc2)cc1`, the melting point was in the range of 142 to 145 °C.
On to `O=C(O)c1cc2cnc3ccccc3n2c1`, for which the melting point lay within 242 to 247 °C.
Molecule `CC#Cc1ccc(NC(=O)c2cccnc2NCc2ccc(OC)nc2)cc1C(F)(F)F` came in with a melting point of 109 to 111 °C.
In turn, `CCCc1c(OCC(O)CSc2nnc(SCC(=O)O)s2)ccc(C(C)=O)c1O` (centres undefined) yielded a melting point of 72 to 75 °C.
With `COc1ccc(N(CCCC(O)CO)S(=O)(=O)c2c(F)c(F)c(F)c(F)c2F)cc1` (centres undefined), the melting point was in the range of 116 to 118 °C.
With `CC(C)Oc1ccc2c(c1)C(=O)c1ccc(C(=O)O)cc1CC2` the figure was 174 to 177 °C; with `O=C(NCCCc1ccncc1)N1CCc2ccccc2C1`, 76 to 79 °C; with `CCCCN(CCCC)c1ccc(C=CC2=C(C#N)C(=C(C#N)C#N)OC2(C)C)c(O[Si](c2ccccc2)(c2ccccc2)C(C)(C)C)c1`, 220 to 221 °C.
The molecule `COC(=O)c1ccc(Cl)c(CBr)c1Cl` displayed a melting point of 51 to 54 °C.
`CC(C)C(c1ccc(N)c([N+](=O)[O-])c1)n1cncn1` (centres undefined) had a melting point of 206 °C.
With `O=C(O)c1c(-c2cccc(OCC3CC3)c2)c2ccccc2n1Cc1ccc(F)cc1`, the melting point is 200 to 202 °C.
With `Cc1ccc2c(Sc3cc(Cl)cc(Cl)c3)c(CCC(N)=O)[nH]c2c1` the figure was 152 °C.
With `Cc1c(F)c(F)c(CNc2ccc(Cl)c(O)c2)c(F)c1F` the figure was 52 °C; with `Oc1ccc(-c2nc3cc(O)ccc3o2)c(Cl)c1`, 253 to 255 °C.

For orientation: melting point means the temperature, or range, at which the solid turns liquid.
